Measured values published in patent US12721820B2, “Method of manufacturing peptide nanoparticles” (DuPage Medical Technology, Inc., priority 2020, dated 2026).
Blank lines part the entries; values can stand above or below the compound they belong to. Residues, ends and D or L forms follow the SMILES beside them. *: point of attachment. Myristoyl = CCCCCCCCCCCCCC(=O)*

Tests used:
[1] = Dissolution and storage stability of lyophilized powder; type: physicochemical
Procedure: The M3mP6 HLPN thus generated achieves a high M3mP6 peptide loading reaching >80% of total nanoparticle (mol/mol) (when such percentage of peptide was incorporated into during the process) and a high peptide concentration of >10 mM in injectable suspension. As analyzed by dynamic light scattering (DLS), the vast majority (99.8-100%) of these lipid-stabilized, PEG-coated M3mP6 HLPN have a particle size ranging between 6 nm to 25 nm (in different preparations) with occasional appearance of very small populations (0-0.2%) with larger diameters (~50-500 nm) (FIGS. 5A-5F).

[2] = tested on: tail bleeding time in mice; experiment: Tail bleeding time; type: in vivo; conditions: same concentrations that inhibit occlusive thrombosis
[3] = in vivo; conditions: male, rat, iv
[4] = Rat 5-day infusion pharmacokinetic study; conditions: for AUC(0-t) / Tmax / clearance: plasma; for Css: steady-state plasma concentration during continuous IV infusion; for λz: terminal elimination rate constant
[5] = tested on: laser-induced cremaster arteriolar thrombosis; experiment: Laser-induced cremaster arteriolar thrombosis model; type: in vivo, mice; conditions: laser-induced mouse cremaster arterial thrombosis model; for intravascular coagulation (fibrin clot formation / fibrin deposition): site of vascular injury
Source text: This example illustrates the comparative effect of M3mP6 HLPN (prepared substantially as described in Example 1) and cangrelor on intracvascular coagulation using laser-induced cremaster arteriolar thrombosis model in mice.
It was recently shown that outside-in signaling plays an important role in not only platelet thrombus formation but also intravascular coagulation under flow shear, an important aspect of thrombosis. […] Thus, we tested the effect of M3mP6 HLPN generated by vortex-mixing-lyophilization on platelet thrombus formation and intravascular coagulation in comparison with cangrelor using the laser-induced cremaster arterial thrombosis model.

storage stability ([1]; lyophilized powder at room temperature (22° C.)): at least 2 weeks | storage stability (similar DLS profile and pharmacological effect) ([1]; lyophilized powder stored at −20° C.): more than 18 months | tail bleeding time [2]: without affecting bleeding | half-life [3]: 234 min | Vd ([4]; female, in vivo, iv): 0.2 L/kg | AUC(0-t) ([4]; female, intravenous): 17600 µg·h/mL | Tmax ([4]; female, intravenous): 4.8 min | clearance ([4]; female, iv, CL CLAUC, clearance estimated from AUC0-∞): 0.7 mL/min/kg | clearance ([4]; female, iv, CL CLcss, clearance estimated from Css): 0.8 mL/min/kg | Css ([4]; female): 131.117 µg/mL | t1/2-λz ([4]; female, terminal elimination half-life): 186 min | λz ([4]; female): 0.223 h⁻¹ | Vλz ([4]; male, distribution volume): 0.46 L/kg | AUC(0-t) ([4]; male, intravenous): 9490 µg·h/mL | Tmax ([4]; male, intravenous): 4.8 min | clearance ([4]; male, intravenous, CL CLAUC, clearance estimated from AUC0-∞): 1.4 mL/min/kg | clearance ([4]; male, iv, CL CLcss, clearance estimated from Css): 1.3 mL/min/kg | Css ([4]; male): 77.621 µg/mL | λz ([4]; male): 0.177 h⁻¹
SMILES: CCCCCCCCCCCCCC(=O)N[C@@H](Cc1ccccc1)C(=O)N[C@@H](CCC(=O)O)C(=O)N[C@@H](CCC(=O)O)C(=O)N[C@@H](CCC(=O)O)C(=O)N[C@@H](CCCNC(=N)N)C(=O)N[C@@H](CC(C)C)C(=O)O [M3mP6, Myr-FEEERL (SEQ ID NO: 8)] (Myristoyl-FEEERL-OH; C-terminus assumed)

SMILES: CSCCNc1nc(SCCC(F)(F)F)nc2c1ncn2[C@@H]1O[C@H](COP(=O)(O)OP(=O)(O)C(Cl)(Cl)P(=O)(O)O)[C@@H](O)[C@H]1O [cangrelor]
platelet thrombus formation [5]: similarly potent effects | intravascular coagulation (fibrin clot formation / fibrin deposition) [5]: moderate effect | intravascular coagulation (fibrin clot formation / fibrin deposition) ([5]; listed as Cangrelor): only partially inhibited | platelet thrombus formation ([5]; listed as Cangrelor): similarly inhibited
